Data: patent US4698332A, “Expectorant” (Mect Corporation, priority 1984, dated 1987)
Counter-ions that a name gives are not always drawn. Like-named read-outs stand apart in the source and are kept apart here.

Tests used:
palatine mucosa of frog [1] = assay: Ciliary movement of frog palatine mucosa, particle transport method (Example 3, Tables 1-3); assay type: cell-based, bull frog; settings: for activation at 100 µg/mL / activation at 10 µg/mL: control = 0
Description: Bull frogs (furnished by Saitama Test Animal) weighing 300 to 450 g were used regardless of sex.
N-acetylneuraminic acid and calcium salt of N-acetylneuraminic acid (provided by Kanto Ishiseiyaku Kabushiki Kaisha), as well as acetylcholine chloride (furnished by Sigma Kabushiki Kaisha) were used as the test substances.
(§1) Mucociliary transport was measured by the particle transport method. After decapitation of a frog, the surface of the palatine mucosa was separated with minimized damage and of fixed to a cork plate in a Petri dish which was then filled with 20 ml of Ringer's solution (trishydrochloric acid). The palatine mucosa was left in this state for 30 minutes before the commencement of measurement. For measurement, the Ringer's solution was removed and fine pieces of cork (capable of passing pharmaceutical sieve No. 5 but not capable of passing No. 6) were placed on the surface of the palatine mucosa, and the time (in seconds) required for the cork piece to move 1 cm was measured. The duration of movement, i.e., moving speed, was measured also in the state immediately after the removal of the Ringer's solution or pharmaceutical solution.

palatine mucosa of frog [2] = assay: Mucociliary transport of frog palatine mucosa (Example 8, Table 6); assay type: cell-based; settings: mean ± SD, over 20.0% significant, read-out: Acceleration (mucociliary transport); for activation at 100 µg/mL: 10^-1 mg/ml; for activation at 10 µg/mL: 10^-2 mg/ml; for activation at 1 µg/mL: 10^-3 mg/ml; for activation at 0.1 µg/mL: 10^-4 mg/ml
Description: as §1

[3] = system: ciliated cells from human airway and frog palate; assay: Rotation of ciliated cell groups (Example 4); assay type: cell-based
Text: Using ciliated cells from human airway and frog palate, rotation of cell groups due to ciliary beat was observed before and after application of N-acetylneuraminic acid and calcium salt of N-acetylneuraminic acid, in order to confirm the effect of these agents on the cilitated cells.
(§2) Human ciliated cells were collected from a normal trachea by means of a branchoscope, the ciliated cells being separated by rubbing the bronchus while observing through the branchoscope, while the collection of frog cilitated cells was conducted by rubbing the palatine mucosta, without being specially careful. […] The groups of cells were transferred to a cover slip and one drop of chicken plasma (prepared by Difco Company) and one drop of 50% chicken embryo extract were added to the cells, thus forming clots. The rotary motion in the clots was recorded by means of a video recorder and the number of rotations per minute was measured.

ciliated cell = assay: Rotating ciliated explant (Example 9, Table 7); assay type: cell-based; settings: for activation at 10 µg/mL: 10^-2 mg/ml (terbutaline 1-^-2 [sic]); for activation at 10 µg/mL / activation at 1 µg/mL / activation at 0.1 µg/mL: mean ± SD, > 20.0 significant, read-out: Acceleration (rotating ciliated explant); for activation at 1 µg/mL: 10^-3 mg/ml; for activation at 0.1 µg/mL: 10^-4 mg/ml
Description: as §2, with “measured. The agents were dissolved in the Medium 199 and were injected through a tube attached to a rose chamber. The state of rotary motion 5 minutes, 10 minutes and 15 minutes after the injection were recorded by means of a video recorder, and the number of revolutions was measured.” for “measured.”
A test was conducted to examine the above-mentioned effect by using sodium salt of N-Acetylneuraminic Acid, in accordance with the same testing method as that of Example 2.

Work on `CC(=O)OCC[N+](C)(C)C.[Cl-]` [acetylcholine, acetylcholine chloride, reference compound] yielded a Movement (palatine mucosa of frog [1]; 10^-4 g/ml, frog number 1) of 21.0 s/cm, a Movement (palatine mucosa of frog [1]; 10^-4 g/ml, frog number 2) of 21.7 s/cm and a Movement (palatine mucosa of frog [1]; 10^-4 g/ml, frog number 3) of 20.7 s/cm. It also gave a Movement (palatine mucosa of frog [1]; 10^-5 g/ml, frog number 1) of 27.0 s/cm, a Movement (palatine mucosa of frog [1]; 10^-5 g/ml, frog number 2) of 29.7 s/cm and a Movement (palatine mucosa of frog [1]; 10^-5 g/ml, frog number 3) of 26.3 s/cm. It also gave an activation at 100 µg/mL (palatine mucosa of frog [1]; read-out: Acceleration, 10^-4 g/ml, frog number 1) of 53.3%, an activation at 100 µg/mL (palatine mucosa of frog [1]; read-out: Acceleration, 10^-4 g/ml, frog number 2) of 41.4% and an activation at 100 µg/mL (palatine mucosa of frog [1]; read-out: Acceleration, 10^-4 g/ml, frog number 3) of 47.3%. It also gave an activation at 10 µg/mL (palatine mucosa of frog [1]; read-out: Acceleration, 10^-5 g/ml, frog number 1) of 40%, an activation at 10 µg/mL (palatine mucosa of frog [1]; read-out: Acceleration, 10^-5 g/ml, frog number 2) of 19.7% and an activation at 10 µg/mL (palatine mucosa of frog [1]; read-out: Acceleration, 10^-5 g/ml, frog number 3) of 33.1%. For the same compound, the activation at 100 µg/mL (palatine mucosa of frog [2]; 5 min, 5 min after applied) was 22.8 ± 26.1%, the activation at 10 µg/mL (palatine mucosa of frog [2]; 5 min, 5 min after applied) was 17.5 ± 14.3% and the activation at 1 µg/mL (palatine mucosa of frog [2]; 5 min, 5 min after applied) was 12.3 ± 8.5%. It also gave an activation at 0.1 µg/mL (palatine mucosa of frog [2]; 5 min, 5 min after applied) of 3 ± 7.6%, an activation at 100 µg/mL (palatine mucosa of frog [2]; 10 min, 10 min after applied) of 31 ± 24.9% and an activation at 10 µg/mL (palatine mucosa of frog [2]; 10 min, 10 min after applied) of 18.8 ± 21.1%. The activation at 1 µg/mL (palatine mucosa of frog [2]; 10 min, 10 min after applied) was 19.9 ± 16.8%, the activation at 0.1 µg/mL (palatine mucosa of frog [2]; 10 min, 10 min after applied) was 3.8 ± 15.5% and the activation at 100 µg/mL (palatine mucosa of frog [2]; 0.25 h, 15 min after applied) was 30.5 ± 19.5%. It also gave an activation at 10 µg/mL (palatine mucosa of frog [2]; 0.25 h, 15 min after applied) of 24.9 ± 25.6%, an activation at 1 µg/mL (palatine mucosa of frog [2]; 0.25 h, 15 min after applied) of 13.9 ± 20.5% and an activation at 0.1 µg/mL (palatine mucosa of frog [2]; 0.25 h, 15 min after applied) of -5.5 ± 10%. The “Time of speed peak of rotary motion after application” value ([3]; 3×10^-3 mg/ml) was about 5 min, the “Time of speed peak of rotary motion after application” value ([3]; 10^-3 mg/ml) was “about 10 minutes” and the “Effect on speed of rotary motion of the cilium cells” value ([3]; 10^-3 mg/ml and 3×10^-3 mg/ml) was “the speed of rotary motion of the cilium cells is increased”. For the same compound, the “Time after application at which rotary motion stopped” value ([3]; 10^-3 and 3×10^-3 mg/ml, both cases) was 13 min, the activation at 10 µg/mL (ciliated cell; 5 min, 5 min after perfusion) was 58.1 ± 38.1% and the activation at 1 µg/mL (ciliated cell; 5 min, 5 min after perfusion) was 27.8 ± 12.2%. The activation at 0.1 µg/mL (ciliated cell; 5 min, 5 min after perfusion) was -1.7%, the activation at 10 µg/mL (ciliated cell; 10 min, 10 min after perfusion) was 52 ± 32.6% and the activation at 1 µg/mL (ciliated cell; 10 min, 10 min after perfusion) was 10.6 ± 15%. It also gave an activation at 0.1 µg/mL (ciliated cell; 10 min, 10 min after perfusion) of 0.8%, an activation at 10 µg/mL (ciliated cell; 0.25 h, 15 min after perfusion) of 44.5 ± 22% and an activation at 1 µg/mL (ciliated cell; 0.25 h, 15 min after perfusion) of 20.8 ± 26.4%. The activation at 0.1 µg/mL (ciliated cell; 0.25 h, 15 min after perfusion) was 14.6% and the Effect on rotation (ciliated cell; between 10^-3 and 10^-2 mg/ml) was “increase in the rotation in a certan dependency on the dose”.

`CC(=O)N[C@H]1[C@H]([C@H](O)[C@H](O)CO)OC(O)(C(=O)O)C[C@@H]1O` (stereo partly shown) [calcium salt of N-acetylneuraminic acid] gave a Movement (palatine mucosa of frog [1]; 10^-4 g/ml, frog number 1) of 23.0 s/cm, an activation at 100 µg/mL (palatine mucosa of frog [1]; 10^-4 g/ml, frog number 1, read-out: Acceleration) of 39% and a Movement (palatine mucosa of frog [1]; 10^-4 g/ml, frog number 2) of 29.0 s/cm. The activation at 100 µg/mL (palatine mucosa of frog [1]; 10^-4 g/ml, frog number 2, read-out: Acceleration) was 28.7%, the Movement (palatine mucosa of frog [1]; 10^-4 g/ml, frog number 3) was 19.7 s/cm and the activation at 100 µg/mL (palatine mucosa of frog [1]; 10^-4 g/ml, frog number 3, read-out: Acceleration) was 46.8%. For the same compound, the Movement (palatine mucosa of frog [1]; 10^-5 g/ml, frog number 1) was 25.0 s/cm, the activation at 10 µg/mL (palatine mucosa of frog [1]; 10^-5 g/ml, frog number 1, read-out: Acceleration) was 33.7% and the Movement (palatine mucosa of frog [1]; 10^-5 g/ml, frog number 2) was 29.3 s/cm. The activation at 10 µg/mL (palatine mucosa of frog [1]; 10^-5 g/ml, frog number 2, read-out: Acceleration) was 28%, the Movement (palatine mucosa of frog [1]; 10^-5 g/ml, frog number 3) was 24.3 s/cm and the activation at 10 µg/mL (palatine mucosa of frog [1]; 10^-5 g/ml, frog number 3, read-out: Acceleration) was 34.2%. The “Effect on ciliary movement of palatine mucosa” value (palatine mucosa of frog [1]; Tables 1 and 3) was “acceleration of the ciliary movement of palatine mucosa in a certain dose-dependency” and the “Ciliary movement promoting effect compared with acetylcholine” value (palatine mucosa of frog [1]; acetylcholine control at 10^-5 and 10^-4) was “substantially the same ciliary movement promoting effect as the acetylcholine”.

`CC(C)(C)NCC(O)c1cc(O)cc(O)c1` (stereo not shown) [terbutaline, 5-[2-[(1.1-dimetylethyl)amino]-1-hydoxyethyl]-1,3-benzenediole] was tested, and the “Effect on rotary motion of the cilium cells” value ([3]; 10^-3 to 3×10^-2 mg/ml) was “the rotary motion of the cilium cells is increased”, the “Effect on rotary motion, time dependence” value ([3]; 5 minutes after application, 10^-3 to 3×10^-2 mg/ml) was “particularly remarkable 5 minutes after the application” and the Effect on rotation (ciliated cell; 10^-4 to 10^- mg/ml (so in the source)) was “general tendency of increase of the rotation”. The activation at 10 µg/mL (ciliated cell; 5 min, 5 min after perfusion) was 18.6 ± 0.3%, the activation at 1 µg/mL (ciliated cell; 5 min, 5 min after perfusion) was 51.2 ± 36% and the activation at 0.1 µg/mL (ciliated cell; 5 min, 5 min after perfusion) was -5.2 ± 12.2%. For the same compound, the activation at 10 µg/mL (ciliated cell; 10 min, 10 min after perfusion) was 24.8 ± 3.5%, the activation at 1 µg/mL (ciliated cell; 10 min, 10 min after perfusion) was 37.2 ± 35.5% and the activation at 0.1 µg/mL (ciliated cell; 10 min, 10 min after perfusion) was 1.6 ± 4.6%. It also gave an activation at 10 µg/mL (ciliated cell; 0.25 h, 15 min after perfusion) of 2.7 ± 7.4%, an activation at 1 µg/mL (ciliated cell; 0.25 h, 15 min after perfusion) of 42.1 ± 32.8% and an activation at 0.1 µg/mL (ciliated cell; 0.25 h, 15 min after perfusion) of 6.7 ± 3%.
